Patent US10689357B2, “N-acylethanolamine hydrolyzing acid amidase (NAAA) inhibitors and use thereof” (Northeastern University, priority 2018, dated 2020)

target: hNAAA (Homo sapiens (Human), UniProt Q02083); assay: NAAA fluorescence-based inhibition assay with PAMCA substrate; type: biochemical; settings: purified activated hNAAA, PAMCA 5 μM, pH 4.5, 37° C.
From the text: In order to have an assay method more conducive to high-throughput screening than those published for measuring the NAE hydrolyzing activity of NAAA [Proc. Natl. Acad. Sci. USA. 2009; 106(49):20966-71], the fluorogenic PEA analog N-(4-methyl coumarin)palmitamide (PAMCA), which is hydrolyzed to fluorescent 7-amino-4-methyl coumarin (AMC) and palmitic acid, was developed. [J. Proteome Res. 2012; 11(2):972-981], [PloS One. 2012; 7: e43877]. For three point concentration inhibition assays with hNAAA the following procedure was used. Purified activated NAAA (final concentration of 0.25 μg/mL) was incubated in assay buffer (100 mM citrate-phosphate buffer, pH 4.5, 3 mM DTT, 0.1% Triton X-100, 0.05% BSA, and 150 mM NaCl) made up to a total volume of 180 μL, followed by addition of the compound dissolved in 10 μL DMSO (along with DMSO neat for the control sample) with the final concentrations for each compound of 100, 10, and 1 μM, in triplicate on a 96 well plate. These samples were allowed to incubate for 15 min at room temperature and then 10 μL of a PAMCA stock solution in DMSO (final PAMCA concentration [5 μM]) was added. After 5 minutes of agitation on a shaking plate, the reaction was allowed to proceed at 37° C. for 120 minutes, with fluorescence readings taken every 10 minutes at a wavelength of 460 nm (using an excitation wavelength of 360 nm) on a Synergy HT Plate Reader using Gen5 software from Bio-Tek. The enzyme activity was calculated by converting the relative fluorescence units to AMC formed, using a standard curve of AMC.
For compounds that inhibit hNAAA in range IC50<1 μM, full inhibition curves using eight different concentrations of inhibitor (8 point assay) were generated. The assay procedure used was the same as the three point assay. For ostensibly covalent compounds (as observed by a significant decrease in the slope of a plot of fluorescence vs. time in three point screen), samples were allowed to incubate for 2 hours at 37° C., instead of 15 minutes, before addition of 10 μL of a PAMCA stock solution in DMSO for a final PAMCA concentration of 5 μM. After 5 minutes of agitation on a shaking plate, the reaction was allowed to proceed at 37° C. for 120 minutes. Inhibition constants were calculated using pro Fit software (Quantum Soft, Uetikon am See, Switzerland) and a Levenberg-Marquardt algorithm.

hNAAA, sequence (Q02083 29-125): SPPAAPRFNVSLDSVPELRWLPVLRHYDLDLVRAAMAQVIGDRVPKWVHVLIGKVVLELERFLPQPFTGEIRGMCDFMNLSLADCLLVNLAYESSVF
hNAAA, sequence (Q02083 126-359): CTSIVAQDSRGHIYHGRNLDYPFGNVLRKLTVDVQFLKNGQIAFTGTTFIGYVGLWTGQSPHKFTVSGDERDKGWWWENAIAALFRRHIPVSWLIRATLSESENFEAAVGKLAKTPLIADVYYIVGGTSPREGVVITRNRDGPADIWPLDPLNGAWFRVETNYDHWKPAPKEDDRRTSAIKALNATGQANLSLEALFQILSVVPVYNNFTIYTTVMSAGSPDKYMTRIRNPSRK

| Structure (SMILES) | IC50 [nM] |
| --- | --- |
| COc1ccc(/C=C/C(=O)N[C@H]2C[C@@H](N=C=S)C2)cc1 [Example 1, (E)-N-((1s, 3s)-3-Isothiocyanatocyclobutyl)-3-(4-methoxyphenyl)acrylamide] | > 1000 |
| COc1cccc(-c2ccc(C(=O)N[C@H]3C[C@@H](N=C=S)C3)cc2)c1 [Example 2, N-((1r, 3r)-3-Isothiocyanatocyclobutyl)-3′-methoxy-[1,1′-biphenyl]-4-carboxamide] | 110 to 1000 |
| COc1cccc(-c2ccc(C(=O)O[C@H]3C[C@@H](N=C=S)C3)cc2)c1 [Example 3, (1r, 3r)-3-Isothiocyanatocyclobutyl 3′-methoxy-[1,1′-biphenyl]-4-carboxylate] | 10 to 100 |
| COc1ccc(Oc2ccc(C(=O)N[C@H]3C[C@H](N=C=S)C3)cc2)cc1 [Example 4, N-((1r, 3r)-3-Isothiocyanatocyclobutyl)-4-(4-methoxyphenoxy)benzamide] | > 1000 |
| O=C(N[C@H]1C[C@@H](N=C=S)C1)c1ccc(N2CCOCC2)cc1 [Example 5, N-((1r, 3r)-3-Isothiocyanatocyclobutyl)-4-morpholinobenzamide] | > 1000 |
| O=C(N[C@H]1C[C@@H](N=C=S)C1)c1ccc(Oc2cccnc2)cc1 [Example 6, N-((1r, 3r)-3-Isothiocyanatocyclobutyl)-4-(pyridin-3-yloxy)benzamide] | 110 to 1000 |
| COc1ccc(-c2ccc(C(=O)N[C@H]3C[C@@H](N=C=S)C3)c(F)c2)cc1 [Example 7, 3-Fluoro-N-((1r, 3r)-3-isothiocyanatocyclobutyl)-4′-methoxy-[1,1′-biphenyl]-4-carboxamide] | 10 to 100 |
| COc1ccc(-c2ccc(C(=O)O[C@H]3C[C@@H](N=C=S)C3)c(F)c2)cc1 [Example 8, (1r, 3r)-3-Isothiocyanatocyclobutyl 3-fluoro-4′-methoxy-[1,1′-biphenyl]-4-carboxylate] | 10 to 100 |
| COc1ccc(-c2ccc(C(=O)N[C@]34C[C@](N=C=S)(C3)C4)c(F)c2)cc1 [Example 9, 3-Fluoro-N-(3-isothiocyanatobicyclo[1.1.1]pentan-1-yl)-4′-methoxy-[1,1′-biphenyl]-4-carboxamide] | > 1000 |
| COc1ccc2cc(C(=O)N[C@H]3C[C@@H](N=C=S)C3)ccc2c1 [Example 10, N-((1s, 3 s)-3-Isothiocyanatocyclobutyl)-6-methoxy-2-naphthamide] | > 1000 |
| CC[C@H]1CC[C@H](c2ccc(C(=O)N[C@H]3C[C@@H](N=C=S)C3)cc2)CC1 [Example 11, 4-((1s, 4s)-4-Ethylcyclohexyl)-N-((1r, 3R)-3-isothiocyanatocyclobutyl) benzamide] | > 1000 |
| COc1ccc(CCC(=O)N[C@H]2C[C@@H](N=C=S)C2)cc1 [Example 12, N-((1r, 3r)-3-Isothiocyanatocyclobutyl)-3-(4-methoxyphenyl)propanamide] | 110 to 1000 |
| COc1ccc(C#CC(=O)N[C@H]2C[C@@H](N=C=S)C2)cc1 [Example 13, N-((1r, 3r)-3-Isothiocyanatocyclobutyl)-3-(4-methoxyphenyl)propiolamide] | 110 to 1000 |
| COc1ccc(C2CC2C(=O)N[C@H]2C[C@@H](N=C=S)C2)cc1 (some centres unmarked) [Example 14, N-((1r, 3r)-3-Isothiocyanatocyclobutyl)-2-(4-methoxyphenyl)cyclopropane-1-carboxamide] | 10 to 100 |
| COc1ccc(CCCC(=O)N[C@H]2C[C@@H](N=C=S)C2)cc1 [Example 15, N-((1r, 3r)-3-Isothiocyanatocyclobutyl)-4-(4-methoxyphenyl)butanamide] | 10 to 100 |
| COc1ccc(-c2cc(C(=O)N[C@H]3C[C@@H](N=C=S)C3)on2)cc1 [Example 16, N-((1r, 3r)-3-Isothiocyanatocyclobutyl)-3-(4-methoxyphenyl)isoxazole-5-carboxamide] | 10 to 100 |
| COc1ccc(N2CCC(C(=O)N[C@H]3C[C@@H](N=C=S)C3)CC2)cc1 [Example 17, N-((1r, 3 r)-3-Isothiocyanatocyclobutyl)-1-(4-methoxyphenyl)piperidine-4-carboxamide] | 110 to 1000 |
| COc1ccc(-c2ccc(C(=O)N[C@H]3C[C@@H](N=C=S)C3)nc2)cc1 [Example 18, N-((1s, 3 s)-3-Isothiocyanatocyclobutyl)-5-(4-methoxyphenyl)picolinamide] | 10 to 100 |

| Structure (SMILES) | IC50 [nM] |
| --- | --- |
| COc1ccc(-c2ccc(C(=O)N[C@H]3C[C@@H](N=C=S)C3)nc2)cc1F [Example 19, 5-(3-Fluoro-4-methoxyphenyl)-N-((1r, 3r)-3-isothiocyanatocyclobutyl) picolinamide] | 10 to 100 |
| COc1cccc(-c2ccc(C(=O)N[C@H]3C[C@@H](N=C=S)C3)nc2)c1 [Example 20, N-((1r, 3r)-3-Isothiocyanatocyclobutyl)-5-(3-methoxyphenyl)picolinamide] | 110 to 1000 |
| COc1ccc(-c2cnc(C(=O)N[C@H]3C[C@@H](N=C=S)C3)cn2)cc1 [Example 22, N-((1r, 3r)-3-Isothiocyanatocyclobutyl)-5-(4-methoxyphenyl)pyrazine-2-carboxamide] | 110 to 1000 |
| N#Cc1ccc(-c2ccc(C(=O)N[C@H]3C[C@@H](N=C=S)C3)nc2)cc1 [Example 23, 5-(4-cyanophenyl)-N-((1r, 3r)-3-Isothiocyanatocyclobutyl)picolinamide] | 110 to 1000 |
| COc1ccc(Nc2ccc(C(=O)N[C@H]3C[C@@H](N=C=S)C3)nc2)cc1 [Example 24, N-((1r, 3r)-3-Isothiocyanatocyclobutyl)-5-((4-methoxyphenyl)amino) picolinamide] | > 1000 |
| COc1ccc(-c2ccc(S(=O)(=O)N[C@H]3C[C@@H](N=C=S)C3)cc2)cc1 [Example 25, N-((1r, 3r)-3-Isothiocyanatocyclobutyl)-4′-methoxy-[1,1′-biphenyl]-4-sulfonamide] | 10 to 100 |
| COc1ccc(-c2ccc(S(=O)(=O)N[C@H]3C[C@@H](N=C=S)C3)nc2)cc1 [Example 26, N-((1s, 3s)-3-Isothiocyanatocyclobutyl)-5-(4-methoxyphenyl)pyridine-2-sulfonamide] | 10 to 100 |
| COc1ccc(-c2ccc(S(=O)(=O)O[C@H]3C[C@@H](N=C=S)C3)cc2)cc1 [Example 27, (1s, 3 s)-3-Isothiocyanatocyclobutyl 4′-methoxy-[1,1′-biphenyl]-4-sulfonate] | 10 to 100 |
| COc1ccc(-c2ccc(C(=O)O[C@H]3C[C@@H](N=C=S)C3)c(F)c2)cc1F [Example 28, (1s,3s)-3-isothiocyanatocyclobutyl 3,3′-difluoro-4′-methoxy-[1,1′-biphenyl]-4-carboxylate] | 10 to 100 |
| COc1ccc(-c2ccc(C(=O)N[C@H]3C[C@@H](N=C=S)C3)c(F)c2)cc1F [Example 29, 3,3′-Difluoro-N-((1s,3s)-3-isothiocyanatocyclobutyl)-4′-methoxy-[1,1′-biphenyl]-4-carboxamide] | 10 to 100 |
| COc1ccc(-c2ccc(S(=O)(=O)N[C@H]3C[C@@H](N=C=S)C3)cc2)cc1F [Example 30, 3′-Fluoro-N-((1s,3s)-3-isothiocyanatocyclobutyl)-4′-methoxy-[1,1′-biphenyl]-4-sulfonamide] | 10 to 100 |
| COc1ccc(-c2ccc(S(=O)(=O)O[C@H]3C[C@@H](N=C=S)C3)cc2)cc1F [Example 31, (1s,3s)-3-Isothiocyanatocyclobutyl 3′-fluoro-4′-methoxy-[1,1′-biphenyl]-4-sulfonate] | 10 to 100 |
| O=C(CCCCCc1ccccc1)N[C@H]1C[C@@H](N=C=S)C1 [Example 32, N-(1s,3s)-(3-Isothiocyanatocyclobutyl)-6-phenylhexanamide] | 10 to 100 |
| COc1ccc(-c2ccc(OC(=O)N[C@H]3C[C@@H](N=C=S)C3)cc2)cc1 [Example 33, 4′-Methoxy-[1,1′-biphenyl]-4-yl ((1s,3s)-3-isothiocyanatocyclobutyl)carbamate] | 10 to 100 |
| COc1ccc(-c2ccc(C(=O)N[C@H]3C[C@@H](N=C=S)C3)nc2)nc1 [Example 34, N-(cis-(3-Isothiocyanatocyclobutyl))-5-methoxy-[2,3′-bipyridine]-6′-carboxamide] | 10 to 100 |
| COc1ccc(-c2ncc(C(=O)N[C@H]3C[C@@H](N=C=S)C3)o2)cc1 [Example 35, N-((cis)-3-isothiocyanatocyclobutyl)-2-(4-methoxyphenyl)oxazole-5-carboxamide] | 110 to 1000 |
| COc1ccc(N2CC(C(=O)N[C@H]3C[C@@H](N=C=S)C3)C2)cc1 [Example 36, N-((1s,3s)-3-Isothiocyanatocyclobutyl)-1-(4-methoxyphenyl)azetidine-3-carboxamide] | 110 to 1000 |
